For test [1], the system named is Blumeria graminis f.sp. hordei. Nature of the test: Blumeria test (barley)/preventive. The following applies: for pest or weed control at 10 ppm: 10 ppm a.i. The class given is in vivo.
A further test relates to Puccinia triticina. In words: Puccinia triticina-test (wheat)/preventive. The following applies: preventive, evaluated 8 days after inoculation; for pest or weed control at 40 ppm: application rate 40 ppm a.i. The class given is in vivo.
Another test relates to Botrytis cinerea. In words: Botrytis test (beans)/preventive.
A further test concerns Alternaria solani. Nature of the test: Alternaria test (tomatoes)/preventive. In kind it is in vivo.
Another test concerns Fusarium graminearum. The class given is in vivo.
For the next test, the system named is Leptosphaeria nodorum. Nature of the test: Leptosphaeria nodorum test (wheat)/preventive. The following applies: for pest or weed control at 40 ppm: application rate 40 ppm. The class given is in vivo.
A further test relates to Pyrenophora teres. Nature of the test: Pyrenophora teres-test (barley)/preventive. In kind it is in vivo. The following applies: preventive, evaluated 8 days after inoculation.
Another test has as its system Venturia inaequalis. Nature of the test: Venturia test (apples)/preventive. The following applies: for pest or weed control at 0.5 ppm: 0.5 ppm a.i.
For another test, the system named is Sphaerotheca fuliginea. In words: Sphaerotheca test (cucumbers)/preventive. The class given is in vivo. The following applies: Podosphaera fuliginea, 168 h, read-out: Efficacy in % found; for pest or weed control at 0.25 ppm: 0.25 ppm a.i.; for pest or weed control at 0.5 ppm: 0.5 ppm a.i.
The next test deals with Septoria tritici. Nature of the test: Septoria tritici-test (wheat)/preventive. The following applies: Zymoseptoria tritici, 504 h, preventive, evaluated 21 days after inoculation, read-out: Efficacy in % found; for pest or weed control at 10 ppm: application rate 10 ppm a.i. In kind it is in vivo.
In the next test the test system is Phytophthora infestans. Nature of the test: whole plant or invertebrate. In kind it is in vivo. The following applies: Phytophthora infestans, 72 h, read-out: Efficacy in % found.
Test [2] has as its system Fusarium nivale (var. majus). In words: Fusarium nivale (var. majus)-test (wheat)/preventive. The following applies: Microdochium nivale, in Triticum aestivum, 120 h; for pest or weed control at 10 ppm: 10 ppm a.i.; for pest or weed control at 40 ppm: 40 ppm a.i.
Experimental: After the spray coating has been dried, the plants are slightly injured by using a sandblast and afterwards they are sprayed with a conidia suspension of Fusarium nivale (var. majus).
The plants are placed in the greenhouse under a translucent incubation cabinet at a temperature of approximately 10° C. and a relative atmospheric humidity of approximately 100%.
The test is evaluated 5 days after the inoculation.
The mark [3] stands for this setting: Parastagonospora nodorum, 192 h, application rate 10 ppm, wheat, preventive, evaluated 8 days after inoculation, read-out: Efficacy in % found.
[4] abbreviates: Parastagonospora nodorum, 192 h, wheat, preventive, evaluated 8 days after inoculation, read-out: Efficacy in % found.
[5] abbreviates: Alternaria solani, 72 h, Table 3b, read-out: Efficacy in % found.
Setting [6] is: Puccinia triticina, 192 h, application rate 10 ppm a.i., read-out: Efficacy in % found.
Setting [7] is: Puccinia triticina, 192 h, read-out: Efficacy in % found.
Where [8] appears, read: Venturia inaequalis, 240 h, read-out: Efficacy in % found, Table 2b, 0.25 ppm a.i.
Where [9] appears, read: read-out: Efficacy in % found, Table 8e.

Nine compounds from patent publication US12642271B2, “Active compound combinations comprising a (thio)carboxamide derivative and a fungicidal compound” (Bayer CropScience Aktiengesellschaft, priority 2011, dated 2026) can be followed below.

Several values for one entry are separate records, joined by “and”; a condition that tells them apart may be missing. Equal entries are not always repeated. Where two headings read alike, the source gives them in different places.

Experimental for Botrytis cinerea: After the spray coating has dried on, 2 small pieces of agar covered with growth of Botrytis cinerea are placed on each leaf. The inoculated plants are placed in a darkened chamber at 20° C. and a relative atmospheric humidity of 100%. 2 days after the inoculation, the size of the lesions on the leaves is evaluated.
Experimental for Venturia inaequalis: After the spray coating has dried on, the plants are inoculated with an aqueous conidia suspension of the causal agent of apple scab (Venturia inaequalis) and then remain for 1 day in an incubation cabinet at approximately 20° C. and a relative atmospheric humidity of 100%.
The plants are then placed in a greenhouse at approximately 21° C. and a relative atmospheric humidity of approximately 90%.
The test is evaluated 10 days after the inoculation.

On to fludioxonil [B13.3], for which the “Efficacy in % found” value in test [1] (Table 6e, 100 ppm a.i.) came out at 0%; in [1] (Table 6f, 400 ppm a.i.), 13%; with Puccinia triticina (application rate 400 ppm a.i.), 0%; with Botrytis cinerea (Table 5a, 2.5 ppm a.i.), 53%; in the test with Botrytis cinerea (Table 5b, 0.5 ppm a.i.), 0%.
For the compound `CC1(C(=O)Nc2ccc(O)c(Cl)c2Cl)CCCCC1` [B1.16, fenhexamid], the pest or weed control at 50 ppm in the test with Alternaria solani (Alternaria solani, 72 h, Table 3b, 50 ppm, read-out: Efficacy in % found) worked out at 22%. Also, the “Efficacy in % found” value was 51% in the test on Botrytis cinerea (Table 5a, 2.5 ppm a.i.) and 0% in the test on Botrytis cinerea (Table 5b, 2 ppm a.i.).
Take pyrimethanil [B7.7]: the “Efficacy in % found” value with Alternaria solani (Table 3b, 25 ppm) was 26%; in the test with Puccinia triticina (application rate 400 ppm a.i.), 11%; with Botrytis cinerea (Table 5b, 10 ppm a.i.), 24%.
As for `CC(C)C1C2CCC1c1c(NC(=O)c3cn(C)nc3C(F)F)cccc12` (stereo not drawn) [B2.11, isopyrazam (syn + anti)], the “Efficacy in % found” value came out at 0% in the test with Fusarium graminearum (Table 7b, 40 ppm a.i.); 0% in the test on Leptosphaeria nodorum (Table 9b, 10 ppm a.i.); 33% with Puccinia triticina (application rate 10 ppm a.i.); 0% in the test with Pyrenophora teres (application rate 10 ppm a.i.); 88% with Venturia inaequalis (Table 2d, 0.25 ppm a.i.).
Regarding `CON=C(C(=O)OC)c1ccccc1CON=C(C)c1cccc(C(F)(F)F)c1` [B3.22, trifloxystrobin], in the test with Sphaerotheca fuliginea (Table 4c, 1 ppm a.i.), the pest or weed control at 1 ppm was 21%. For the same compound, the “Efficacy in % found” value in the test on Fusarium graminearum (Table 7a, 10 ppm a.i.) worked out at 0%; with Fusarium graminearum (Table 7b, 10 ppm a.i.) it was 25%. The values for the pest or weed control at 10 ppm in the test on Leptosphaeria nodorum (setting [3]) and in the test with Septoria tritici were 40% and 13%, respectively. Also, the pest or weed control at 40 ppm in the test on Leptosphaeria nodorum (setting [4]) came out at 57%.
For the compound `Cn1nc(C(F)F)c(C(=O)N(Cc2cc(Cl)ccc2C(F)(F)F)C2CC2)c1F` [A15, N-[5-chloro-2-(trifluoromethyl)benzyl]-N-cyclopropyl-3-(difluoromethyl)-5-fluoro-1-methyl-1H-pyrazole-4-carboxamide], the pest or weed control at 0.25 ppm was 0% in the test on Phytophthora infestans; 59% in the test on Alternaria solani (Alternaria solani, 72 h, Table 3b, 0.25 ppm, read-out: Efficacy in % found); 29% with Sphaerotheca fuliginea (Table 4c); 0% in the test with Venturia inaequalis (setting [8]). For the same compound, the pest or weed control at 0.5 ppm is 0% in the test with Phytophthora infestans; 63% with Alternaria solani (setting [5]); 0% in the test with Venturia inaequalis (Venturia inaequalis, 240 h, read-out: Efficacy in % found, Table 2a). Besides, the pest or weed control at 100 ppm in the test on Phytophthora infestans is 25%. The pest or weed control at 10 ppm in [1] (Blumeria graminis, 168 h, Table 6b, read-out: Efficacy in % found) worked out at 13%; in the test with Puccinia triticina (setting [6]), 44%; in the test on Septoria tritici it was 57%; in test [2] (read-out: Efficacy in % found, Table 8c), 63%. In addition, the pest or weed control at 40 ppm in test [1] (Blumeria graminis, 168 h, Table 6b, 40 ppm a.i., read-out: Efficacy in % found) came to 70%; in [1] (Blumeria graminis, 168 h, Table 6c, 40 ppm, read-out: Efficacy in % found), 75%; in the test on Puccinia triticina (setting [7]), 89%. Moreover, the “Efficacy in % found” value came to 0% in the test with Fusarium graminearum (Table 7b, 10 ppm a.i.); 0% in the test on Fusarium graminearum (Table 7b, 40 ppm a.i.); 67% in the test with Pyrenophora teres (application rate 10 ppm a.i.); 8% with Botrytis cinerea (Table 5a, 2.5 ppm a.i.).
As for `CC(C1CC1)C(O)(Cn1cncn1)c1ccc(Cl)cc1` (stereo not shown) [B1.5, cyproconazole], in the test with Sphaerotheca fuliginea (Table 4c), the pest or weed control at 0.5 ppm came out at 30%. In addition, the pest or weed control at 20 ppm in test [1] (Blumeria graminis, 168 h, Table 6d, 20 ppm, read-out: Efficacy in % found) is 78%; with Puccinia triticina (Puccinia triticina, 192 h, application rate 20 ppm a.i., read-out: Efficacy in % found) it was 56%; with Septoria tritici (application rate 20 ppm a.i.), 29%. Also, in the test with Leptosphaeria nodorum (Parastagonospora nodorum, 192 h, Table 9a, 80 ppm a.i., read-out: Efficacy in % found), the pest or weed control at 80 ppm amounted to 29%. For the same compound, in the test with Pyrenophora teres (application rate 20 ppm a.i.), the “Efficacy in % found” value was determined as 0%.
On to `Cn1nc(C(F)F)c(C(=O)N(Cc2c(Cl)cccc2C(F)(F)F)C2CC2)c1F` [A17, N-[2-chloro-6-(trifluoromethyl)benzyl]-N-cyclopropyl-3-(difluoromethyl)-5-fluoro-1-methyl-1H-pyrazole-4-carboxamide], for which the pest or weed control at 0.25 ppm in the test on Phytophthora infestans worked out at 0%; in the test on Sphaerotheca fuliginea (Table 4b), 71%; in the test with Venturia inaequalis (setting [8]) it was 8%. In addition, the pest or weed control at 0.5 ppm in the test with Phytophthora infestans was found to be 0%; in the test with Alternaria solani (setting [5]), 71%; in the test on Alternaria solani (Alternaria solani, 72 h, Table 3c, read-out: Efficacy in % found), 32%; in the test on Sphaerotheca fuliginea (Table 4a) it was 74%. For the same compound, in the test with Phytophthora infestans, the pest or weed control at 100 ppm stood at 30%. Also, the pest or weed control at 10 ppm in test [1] (Blumeria graminis, 168 h, Table 6a, read-out: Efficacy in % found) amounted to 95%; in the test on Leptosphaeria nodorum (Parastagonospora nodorum, 192 h, Table 9e, 10 ppm a.i., read-out: Efficacy in % found), 29%; in the test with Leptosphaeria nodorum (setting [3]), 33%; in [2] (read-out: Efficacy in % found, Table 8d) it was 43%. For the same compound, the “Efficacy in % found” value in the test with Fusarium graminearum (Table 7a, 10 ppm a.i.) is 50%; in the test on Pyrenophora teres (application rate 10 ppm a.i.), 86% and 89%. Further, the pest or weed control at 40 ppm with Leptosphaeria nodorum (setting [4]) and in the test with Puccinia triticina (setting [7]) was 67% in each case.
Consider `CC(C)c1ccc(Cl)cc1CN(C(=O)c1c(C(F)F)nn(C)c1F)C1CC1` [A5, N-(5-chloro-2-isopropylbenzyl)-N-cyclopropyl-3-(difluoromethyl)-5-fluoro-1-methyl-1H-pyrazole-4-carboxamide], for which the pest or weed control at 0.5 ppm in the test on Phytophthora infestans worked out at 0%; in the test on Alternaria solani (Alternaria solani, 72 h, Table 3e, read-out: Efficacy in % found), 6%; in the test with Alternaria solani (Alternaria solani, 72 h, Table 3d, read-out: Efficacy in % found), 0%; in the test on Sphaerotheca fuliginea (Table 4d), 0%; in the test on Venturia inaequalis (Venturia inaequalis, 240 h, read-out: Efficacy in % found, Table 2e) it was 15%; in the test on Venturia inaequalis (Venturia inaequalis, 240 h, read-out: Efficacy in % found, Table 2d), 0%. Also, the pest or weed control at 40 ppm in test [1] (Blumeria graminis, 168 h, Table 6f, 40 ppm a.i., read-out: Efficacy in % found) worked out at 25%; with Leptosphaeria nodorum (setting [4]), 60%; in the test on Puccinia triticina (setting [7]), 94%; in the test with Septoria tritici (application rate 40 ppm a.i.), 93%; in [2] (setting [9]), 0%; in test [2] (read-out: Efficacy in % found, Table 8f) it was 38%. Besides, the pest or weed control at 10 ppm with Leptosphaeria nodorum (setting [3]) worked out at 20%; with Puccinia triticina (setting [6]), 44%; in [2] (setting [9]) it was 0%. Moreover, the “Efficacy in % found” value is on record as 16% in the test on Botrytis cinerea (Table 5b, 0.5 ppm a.i.) and 72% in the test with Botrytis cinerea (Table 5b, 2 ppm a.i.). In addition, the pest or weed control at 2 ppm in the test with Venturia inaequalis (Venturia inaequalis, 240 h, read-out: Efficacy in % found, Table 2e, 2 ppm a.i.) came out at 57%. The pest or weed control at 0.25 ppm in the test with Venturia inaequalis (Venturia inaequalis, 240 h, read-out: Efficacy in % found, Table 2d, 0.25 ppm a.i.) was 0%.
